Tested on: RAW264.7
Experiment: Antiinflammatory activity against mouse RAW264.7 cells assessed as inhibition of LPS-induced PGE2 production preincubated for 1 hr followed by LPS-stimulation and measured after 18 hrs
Format: functional, cell-based

| IC50 | Structure (SMILES) |
| --- | --- |
| 19.7 µM | COc1cc(/C=C/C(=O)O[C@H](C(=O)O)[C@](O)(Cc2ccc(O)cc2)C(=O)O)ccc1O [CIMICIFUGIC ACID E] |
| 39.9 µM | COc1cc(/C=C/C(=O)NCCc2ccc(O)c(O)c2)ccc1O [N-TRANS-FERULOYLDOPAMINE] |
| 6.33 µM | COc1cc(/C=C/C(=O)NCCc2ccc(O)cc2)ccc1O [N-TRANS-FERULOYL TYRAMINE] |
| 5.5 µM | C[C@]12CCC(=O)C=C1CC[C@@H]1[C@@H]2[C@@H](O)C[C@@]2(C)[C@H]1CC[C@]2(O)C(=O)CO [HYDROCORTISONE] |
